# According to PubChem BioAssay AID330 (DTP/NCI, 2004):
# “And” between values parts separate entries of the source, which are not always exact repeats. Equal entries are not always repeated. Inconclusive results and toxic doses are left out.
# Tested on: P388 leukemia ip, CD2F1 mice, survival T/C
# Assay: NCI In Vivo Anticancer Drug Screen. Data for tumor model P388 Leukemia (intraperitoneal) in CD2F1 (CDF1) mice
# Settings: endpoint: median survival time, higher = longer survival
# Procedure, shortened: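 Mice carrying the transplanted tumor received test compound or vehicle. Survival was recorded in each group, and the value is the treated-group measurement divided by that of the vehicle-treated control group.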
# [1] = dose: 60.0 mg/kg/injection, schedule: Q01DX005 (ip), vehicle: Klucel (hydroxypropylcellulose) (HPC)
# [2] = dose: 120.0 mg/kg/injection, schedule: Q01DX005 (ip), vehicle: Klucel (hydroxypropylcellulose) (HPC)
# [3] = dose: 50.0 mg/kg/injection, schedule: Q01DX009 (ip), vehicle: saline
# [4] = dose: 100.0 mg/kg/injection, schedule: Q01DX009 (ip), vehicle: saline
# [5] = dose: 200.0 mg/kg/injection, schedule: Q01DX009 (ip), vehicle: saline
# [6] = dose: 100.0 mg/kg/injection, schedule: Q04DX003 (ip), vehicle: saline
# [7] = dose: 200.0 mg/kg/injection, schedule: Q04DX003 (ip), vehicle: saline
# [8] = dose: 50.0 mg/kg/injection, schedule: Q01DX009 (ip), vehicle: Klucel (hydroxypropylcellulose) (HPC)
# [9] = dose: 100.0 mg/kg/injection, schedule: Q01DX009 (ip), vehicle: Klucel (hydroxypropylcellulose) (HPC)
# [10] = dose: 200.0 mg/kg/injection, schedule: Q01DX009 (ip), vehicle: Klucel (hydroxypropylcellulose) (HPC)
# [11] = dose: 240.0 mg/kg/injection, schedule: Q01DX005 (ip), vehicle: Klucel (hydroxypropylcellulose) (HPC)
# [12] = dose: 50.0 mg/kg/injection, schedule: Q01DX005 (ip), vehicle: Klucel (hydroxypropylcellulose) (HPC)
# [13] = dose: 100.0 mg/kg/injection, schedule: Q01DX005 (ip), vehicle: Klucel (hydroxypropylcellulose) (HPC)
# [14] = dose: 200.0 mg/kg/injection, schedule: Q01DX005 (ip), vehicle: Klucel (hydroxypropylcellulose) (HPC)
# [15] = dose: 1.88 mg/kg/injection, schedule: Q01DX009 (ip), vehicle: saline
structure (smiles),measurement,setting,value
CS(=O)(=O)OCC(O)C(O)C(OS(C)(=O)=O)C(O)COS(C)(=O)=O (stereo not given),T/C,"dose: 50.0 mg/kg/injection, schedule: Q04DX003 (ip), vehicle: Klucel (hydroxypropylcellulose) (HPC)",100 % of control
same,T/C,"dose: 100.0 mg/kg/injection, schedule: Q04DX003 (ip), vehicle: Klucel (hydroxypropylcellulose) (HPC)",100 % of control
Nc1nc(-c2ccccn2)cc(-c2cc(-c3ccccn3)nc(N)n2)n1,T/C,[1],102 % of control
same,T/C,[2],112 % of control
Cc1cc(C(=O)Nc2ccc(NC3=NCCN3)cc2)c(C)cc1C(=O)Nc1ccc(NC2=NCCN2)cc1,T/C,"dose: 12.5 mg/kg/injection, schedule: Q01DX005 (ip), vehicle: Klucel (hydroxypropylcellulose) (HPC)",101 % of control
same,T/C,"dose: 25.0 mg/kg/injection, schedule: Q01DX005 (ip), vehicle: Klucel (hydroxypropylcellulose) (HPC)",106 % of control
O=C(C1CC2C=CC1C2)N1CCCCC1 (stereo not given),T/C,[3],90 % of control
same,T/C,[4],91 % of control
same,T/C,[5],98 % of control
[BH]n1cccn1.[CH3][Sn]([CH3])[N]=C=S,T/C,[6],117 % of control
same,T/C,[7],117 % of control
CCCCCCNC(=S)Nc1ccc2cc(C)ccc2n1,T/C,[8],91 % of control
same,T/C,[9],91 % of control
same,T/C,[10],94 % of control
CCN1c2ccccc2SC1CC1=C(O)C(CC2Sc3ccccc3N2CC)=C1O (stereo not given),T/C,[1],91 % of control
same,T/C,[2],96 % of control
same,T/C,[11],89 % of control
O=C1C(=O)c2ccccc2C(O)=C1CCCc1ccc(C2CCCCC2)cc1,T/C,"dose: 3.12 mg/kg/injection, schedule: Q01DX009 (ip), vehicle: saline with Tween-80",112 % of control
same,T/C,"dose: 6.25 mg/kg/injection, schedule: Q01DX009 (ip), vehicle: saline with Tween-80",101 % of control
same,T/C,"dose: 12.5 mg/kg/injection, schedule: Q01DX009 (ip), vehicle: saline with Tween-80",94 % of control
same,T/C,"dose: 25.0 mg/kg/injection, schedule: Q01DX009 (ip), vehicle: saline with Tween-80",101 % of control
same,T/C,"dose: 50.0 mg/kg/injection, schedule: Q01DX009 (ip), vehicle: saline with Tween-80",94 % of control
same,T/C,"dose: 100.0 mg/kg/injection, schedule: Q01DX009 (ip), vehicle: saline with Tween-80",93 % of control
same,T/C,"dose: 200.0 mg/kg/injection, schedule: Q01DX009 (ip), vehicle: saline with Tween-80",104 % of control
Cc1cccc(OCCOC(=O)Nc2cccc(C(F)(F)F)c2)c1,T/C,"dose: 60.0 mg/kg/injection, schedule: Q01DX005 (ip), vehicle: saline with Tween-80",99 % of control
same,T/C,"dose: 120.0 mg/kg/injection, schedule: Q01DX005 (ip), vehicle: saline with Tween-80",96 % of control
same,T/C,"dose: 240.0 mg/kg/injection, schedule: Q01DX005 (ip), vehicle: saline with Tween-80",96 % of control
CC1CCC(=O)CN1Cc1ccccc1 (stereo not given),T/C,"dose: 50.0 mg/kg/injection, schedule: Q01DX005 (ip), vehicle: saline with Tween-80",109 % of control
same,T/C,"dose: 100.0 mg/kg/injection, schedule: Q01DX005 (ip), vehicle: saline with Tween-80",101 % of control
C[C@@H](N)C(=O)NC(CO)CC(N)C=O (stereo not given in full),T/C,"dose: 50.0 mg/kg/injection, schedule: Q04DX002 (ip), vehicle: saline",105 % of control and 115 % of control
same,T/C,"dose: 100.0 mg/kg/injection, schedule: Q04DX002 (ip), vehicle: saline",111 % of control and 120 % of control
same,T/C,"dose: 200.0 mg/kg/injection, schedule: Q04DX002 (ip), vehicle: saline",109 % of control and 121 % of control
same,T/C,"dose: 400.0 mg/kg/injection, schedule: Q04DX002 (ip), vehicle: saline",122 % of control
O=C1c2ccccc2C(=O)C2C3C=CC(CC3)C12 (stereo not given),T/C,[12],105 % of control
same,T/C,[13],102 % of control
same,T/C,[14],99 % of control
CCCCCCCCCCCCCCCCCC(=O)NC(Cc1ccc(N(CCCl)CCCl)cc1)C(=O)O (stereo not given),T/C,[15],159 % of control
same,T/C,"dose: 3.75 mg/kg/injection, schedule: Q01DX009 (ip), vehicle: saline",172 % of control
same,T/C,"dose: 3.75 mg/kg/injection, schedule: Q03HX008 (ip), vehicle: saline",155 % of control
same,T/C,"dose: 7.5 mg/kg/injection, schedule: Q01DX009 (ip), vehicle: saline",236 % of control
same,T/C,"dose: 7.5 mg/kg/injection, schedule: Q03HX008 (ip), vehicle: saline",190 % of control
same,T/C,"dose: 15.0 mg/kg/injection, schedule: Q01DX009 (ip), vehicle: saline",277 % of control
same,T/C,"dose: 15.0 mg/kg/injection, schedule: Q03HX008 (ip), vehicle: saline",225 % of control
CCOC(=O)C1=C(C)OC(N)=C(C#N)C12C(=O)N(C)C(=O)c1ccccc12 (stereo not given),T/C,[12],101 % of control
same,T/C,[13],103 % of control
same,T/C,[14],96 % of control
O=P(N1CCCCCC1)(N1CC1)N1CC1,T/C,"dose: 0.47 mg/kg/injection, schedule: Q01DX009 (ip), vehicle: saline",102 % of control
same,T/C,"dose: 0.94 mg/kg/injection, schedule: Q01DX009 (ip), vehicle: saline",108 % of control
same,T/C,"dose: 0.94 mg/kg/injection, schedule: Q04DX003 (ip), vehicle: saline",117 % of control
same,T/C,"dose: 1.87 mg/kg/injection, schedule: Q01DX009 (ip), vehicle: saline",118 % of control
same,T/C,[15],118 % of control
same,T/C,"dose: 3.75 mg/kg/injection, schedule: Q04DX003 (ip), vehicle: saline",161 % of control
same,T/C,"dose: 7.5 mg/kg/injection, schedule: Q04DX003 (ip), vehicle: saline",227 % of control
same,T/C,"dose: 15.0 mg/kg/injection, schedule: Q04DX003 (ip), vehicle: saline",165 % of control
same,T/C,"dose: 22.0 mg/kg/injection, schedule: Q04DX003 (ip), vehicle: saline",190 % of control
same,T/C,"dose: 30.0 mg/kg/injection, schedule: Q04DX003 (ip), vehicle: saline",200 % of control
same,T/C,"dose: 33.0 mg/kg/injection, schedule: Q04DX003 (ip), vehicle: saline",259 % of control
CCOC(=O)c1cnc(NCCCCCCNc2ncc(C(=O)OCC)c(=O)[nH]2)[nH]c1=O,T/C,[12],97 % of control
same,T/C,[13],91 % of control
CCCCCCCCCCCCCCCCC1(O)OC(=O)C(C)=C1C (stereo not given),T/C,"dose: 12.5 mg/kg/injection, schedule: Q04DX003 (ip), vehicle: saline with Tween-80",100 % of control
same,T/C,"dose: 25.0 mg/kg/injection, schedule: Q04DX003 (ip), vehicle: saline with Tween-80",108 % of control
same,T/C,"dose: 50.0 mg/kg/injection, schedule: Q04DX003 (ip), vehicle: saline with Tween-80",106 % of control
CN(C)C(CC(=O)O)C(=O)O (stereo not given),T/C,"dose: 50.0 mg/kg/injection, schedule: Q01DX009 (ip), vehicle: water",108 % of control
same,T/C,"dose: 100.0 mg/kg/injection, schedule: Q01DX009 (ip), vehicle: water",98 % of control
same,T/C,"dose: 200.0 mg/kg/injection, schedule: Q01DX009 (ip), vehicle: water",99 % of control
Cc1ccc2c(C)cc(=O)oc2c1,T/C,[6],102 % of control
same,T/C,[7],105 % of control
same,T/C,"dose: 400.0 mg/kg/injection, schedule: Q04DX003 (ip), vehicle: saline",108 % of control
O=C1C=CC2(C=C1)CCCCC2,T/C,"dose: 50.0 mg/kg/injection, schedule: Q01DX001 (ip), vehicle: Klucel (hydroxypropylcellulose) (HPC)",91 % of control
same,T/C,"dose: 100.0 mg/kg/injection, schedule: Q01DX001 (ip), vehicle: Klucel (hydroxypropylcellulose) (HPC)",101 % of control
COc1ccc(C(C)=O)cc1CS/C(=N/S(=O)(=O)c1ccccc1)Nc1cccc(Cl)c1Cl,T/C,[8],101 % of control
same,T/C,[9],101 % of control
same,T/C,[10],98 % of control
C/C(N)=N\O,T/C,[3],94 % of control
same,T/C,[4],114 % of control
same,T/C,[5],104 % of control
O=C(Nc1c(Cl)cccc1Cl)OCCOc1ccc(Cl)cc1Cl,T/C,[1],99 % of control
same,T/C,[2],96 % of control
same,T/C,[11],99 % of control
COc1ccc(CCN(C=O)CCc2ccc(OC)c(OC)c2)cc1OC,T/C,"dose: 25.0 mg/kg/injection, schedule: Q01DX009 (ip), vehicle: other",97 % of control
same,T/C,"dose: 100.0 mg/kg/injection, schedule: Q01DX009 (ip), vehicle: other",109 % of control
same,T/C,"dose: 200.0 mg/kg/injection, schedule: Q01DX009 (ip), vehicle: other",101 % of control
same,T/C,"dose: 400.0 mg/kg/injection, schedule: Q01DX009 (ip), vehicle: other",103 % of control
C=CC[P+](CC[P+](CC=C)(c1ccccc1)c1ccccc1)(c1ccccc1)c1ccccc1,T/C,"dose: 6.25 mg/kg/injection, schedule: Q04DX002 (ip), vehicle: saline",102 % of control
same,T/C,"dose: 12.5 mg/kg/injection, schedule: Q04DX002 (ip), vehicle: saline",96 % of control
